US20030162815A1, “Thiazolidinedione salt for treatment of diabetes mellitus” (priority 2003, published 2003)

Assays:
Type in all cases: physicochemical
[1] = Solubility of the Hydrobromide in water (visual, confirmed by HPLC assay of a saturated solution); details: thermodynamic from solid, product of Example 3
From the text: The visual solubility was confirmed by an HPLC assay of a saturated solution.

[2] = Solid state stability of the Hydrobromide (storage for 1 month, HPLC assay for final content and degradation products); details: product of Example 3
Experimental: The solid state stability of the drug substance was determined by storing approximately 1.0 g of the material in a glass bottle at i) 40° C./75% Relative Humidity (RH), open exposure, for 1 month and b) at 50° C., closed, for 1 month. The material was assayed by HPLC for final content and degradation products in both cases.

[3] = Flow properties of the Hydrobromide (Hausner Ratio, bulk density vs tapped bulk density); details: ratio between bulk density and tapped bulk density; product of Example 3
Experimental: The ratio between the bulk density and the tapped bulk density (Hausner Ratio) of the Hydrobromide was determined using standard methods (“Pharmaceutics—The Science of Dosage Form Design”, editor M. Aulton, 1988, published by: Churchill Livingstone).

For `Br.CN(CCOc1ccc(CC2SC(=O)NC2=O)cc1)c1ccccn1` (stereo not drawn) [Hydrobromide, 5-[4-[2-(N-methyl-N-(2-pyridyl)amino)ethoxy]benzyl]thiazolidine-2,4-dione hydrobromide], the solubility [1] was 6000 µg/mL, the “Solid state stability: HPLC assay” value ([2]; 40° C./75% RH, open exposure) was 98 % initial and the “Solid state stability: degradation” value ([2]; 40° C./75% RH, open exposure) was “No significant degradation observed”. For the same compound, the “Solid state stability: HPLC assay” value ([2]; 50° C., closed) was 98 % initial, the “Solid state stability: degradation” value ([2]; 50° C., closed) was “No significant degradation observed” and the “Hausner Ratio” value [3] was 1.3.
